We go through 13 molecules from PubChem BioAssay (NCI).

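Tested at 5 concentrations; 48 h exposure; 96-well plates; endpoints linearly interpolated, else capped at highest concentration. GI50 marks 50% less growth. TGI: concentration producing complete growth inhibition.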

Some test systems named below: OVCAR-3 ovarian; HCC-2998 colon; UACC-62 melanoma; OVCAR-5 ovarian; NCI-H23 lung; M14 melanoma; NCI-H522 lung; 786-0 renal; A498 renal; SNB-75 CNS.
Holding throughout (assay): NCI tumour cell line growth inhibition, 48 h

For the molecule `COc1ccc(Cl)cc1Nc1nc(C(F)(F)F)ccc1C(=O)N/N=C/c1ccc(Cl)cc1`, the GI50 is 0.576 µM in the experiment with OVCAR-3 ovarian; 2.67 µM with HCC-2998 colon; 8.01 µM in the experiment on UACC-62 melanoma; 6.48 µM in the experiment on OVCAR-5 ovarian; 9.57 µM with NCI-H23 lung; 3.69 µM in the experiment on M14 melanoma. In addition, the GI50 in the experiment with NCI-H522 lung is 4.16 µM; in the experiment on 786-0 renal, 1.22 µM; in the experiment on A498 renal, 18.2 µM. Also, the TGI in the experiment with OVCAR-3 ovarian is 1.66 µM; with HCC-2998 colon, more than 100 µM; with UACC-62 melanoma, 40.9 µM; in the experiment on OVCAR-5 ovarian, more than 100 µM; in the experiment on NCI-H23 lung, 42 µM; in the experiment on M14 melanoma, more than 100 µM. The TGI in the experiment on NCI-H522 lung is 42.5 µM; in the experiment with 786-0 renal, 7.09 µM; in the experiment with A498 renal, more than 100 µM.
Take `CC1=C2[C@@H](c3ccccc3)C3C=CC2(C=C3C(F)(F)F)N(C(=O)NC2CCCCC2)C1=O` (some centres not stated): the TGI with OVCAR-3 ovarian, in the experiment with HCC-2998 colon, in the experiment on UACC-62 melanoma, in the experiment on OVCAR-5 ovarian, in the experiment with NCI-H23 lung and in the experiment on M14 melanoma was more than 100 µM throughout. In addition, the TGI in the experiment on SNB-75 CNS, with 786-0 renal and in the experiment with A498 renal was more than 100 µM throughout.
As for `COc1cccc(OC)c1/C=N\N1C(=O)c2ccccc2C1=O`, the TGI was 44.1 µM in the experiment with OVCAR-3 ovarian; 91.9 µM with HCC-2998 colon; more than 100 µM with UACC-62 melanoma; more than 100 µM with OVCAR-5 ovarian; more than 100 µM with NCI-H23 lung; 58.2 µM in the experiment with M14 melanoma. Also, the TGI in the experiment with SNB-75 CNS was 98.1 µM; with 786-0 renal it was more than 100 µM; in the experiment on A498 renal it was more than 100 µM.
Take `CCOC(=O)/C(=C/c1ccc[nH]1)P(=O)(OCC)OCC`: the TGI in the experiment with OVCAR-3 ovarian, with HCC-2998 colon, in the experiment on UACC-62 melanoma, with OVCAR-5 ovarian, in the experiment with NCI-H23 lung and in the experiment on M14 melanoma was more than 100 µM throughout. For the same molecule, the TGI in the experiment with NCI-H522 lung, in the experiment with SNB-75 CNS and in the experiment on 786-0 renal was more than 100 µM each time.
`O=C(CO[N+](=O)[O-])OCC(=O)c1ccccc1`: the TGI with OVCAR-3 ovarian, in the experiment with HCC-2998 colon, in the experiment on OVCAR-5 ovarian, with NCI-H23 lung, in the experiment on M14 melanoma and in the experiment with NCI-H522 lung was more than 100 µM in each case. Moreover, the TGI in the experiment on SNB-75 CNS and in the experiment with 786-0 renal was more than 100 µM each time.
`CC(=O)Nc1ccc(C(=O)NN2C(=O)CSC2c2ccccc2)cc1` (configuration not stated): the TGI with OVCAR-3 ovarian, in the experiment with HCC-2998 colon, in the experiment on UACC-62 melanoma, in the experiment on OVCAR-5 ovarian, in the experiment on NCI-H23 lung and with M14 melanoma was more than 100 µM each time. Also, the TGI with SNB-75 CNS, in the experiment with 786-0 renal and with A498 renal was more than 100 µM each time.
For `Cc1[nH]n(C(=O)c2ccc(Cl)cc2)c(=O)c1/C=C1\C(O)=CC(=O)c2ccccc21`, the TGI with OVCAR-3 ovarian, with HCC-2998 colon, in the experiment with UACC-62 melanoma, with OVCAR-5 ovarian, with NCI-H23 lung and in the experiment with M14 melanoma was more than 100 µM each time. Moreover, the TGI in the experiment on NCI-H522 lung, with 786-0 renal and with A498 renal was more than 100 µM in each case.
`CCCCc1c2c(nc3c1CC/C(=C\c1ccccc1)C3=O)CCCC2`: the TGI in the experiment on OVCAR-3 ovarian worked out at 10.4 µM; with HCC-2998 colon, 8.34 µM; in the experiment with UACC-62 melanoma, 7.04 µM; in the experiment on NCI-H23 lung it was 17.7 µM; in the experiment with M14 melanoma, 18.9 µM; with NCI-H522 lung, 6.37 µM. Further, the figures for the TGI with SNB-75 CNS and in the experiment on 786-0 renal were 23 µM and 5.64 µM, respectively.
`O=C(Nc1cccc(C(F)(F)F)c1)Nc1ccc(OCc2nnc(-c3ccccc3)o2)c(F)c1`: the GI50 with OVCAR-3 ovarian was 4.23 µM; with HCC-2998 colon, 6.4 µM; in the experiment on UACC-62 melanoma, 4.1 µM; with OVCAR-5 ovarian, 18.9 µM; in the experiment on NCI-H23 lung it was 4.49 µM; in the experiment on M14 melanoma, 7.18 µM. Moreover, the GI50 with SNB-75 CNS was 0.645 µM; with 786-0 renal it was 6.18 µM; in the experiment with A498 renal, 3.38 µM. For the same molecule, the TGI with OVCAR-3 ovarian is 17 µM; in the experiment with HCC-2998 colon, 59.8 µM; with UACC-62 melanoma it was 24.6 µM; in the experiment on OVCAR-5 ovarian, more than 100 µM; in the experiment with NCI-H23 lung, 24.5 µM; in the experiment with M14 melanoma, 62.8 µM. For the same molecule, the TGI in the experiment on SNB-75 CNS came out at 5.81 µM; with 786-0 renal, 22.4 µM; with A498 renal it was 25.8 µM.
Regarding `CC(C)=NO.CC(C)=NO.CC(C)=NO.CC(C)=NO.[Ti]`, the GI50 in the experiment on OVCAR-3 ovarian, in the experiment with HCC-2998 colon, with UACC-62 melanoma, in the experiment on OVCAR-5 ovarian, in the experiment with M14 melanoma and in the experiment on NCI-H522 lung was more than 100 µM throughout. Also, the GI50 in the experiment on SNB-75 CNS and in the experiment with 786-0 renal was more than 100 µM each time. Further, the TGI in the experiment with OVCAR-3 ovarian, with HCC-2998 colon, in the experiment on UACC-62 melanoma, with OVCAR-5 ovarian, with M14 melanoma and in the experiment with NCI-H522 lung was more than 100 µM throughout. Further, the TGI in the experiment with SNB-75 CNS and in the experiment with 786-0 renal was more than 100 µM each time.
Take `Cc1cccc2c1Oc1ncccc1C2NC(=O)CN(C)C` (configuration not stated): the TGI in the experiment on OVCAR-3 ovarian, in the experiment on HCC-2998 colon, with UACC-62 melanoma, with OVCAR-5 ovarian, in the experiment with NCI-H23 lung and in the experiment on M14 melanoma was more than 10 µM throughout. Moreover, the TGI with NCI-H522 lung, in the experiment on SNB-75 CNS and with 786-0 renal was more than 10 µM throughout.
Turning to `Cn1nc(-c2ccccc2)c(C(=O)/C=C/c2ccccc2)c(N2CCCC2)c1=O`, the TGI in the experiment on UACC-62 melanoma came out at 41 µM; in the experiment with NCI-H23 lung, 29.9 µM; with M14 melanoma it was 35.3 µM; in the experiment on NCI-H522 lung it was 23.7 µM; in the experiment on 786-0 renal it was 33.4 µM; in the experiment with A498 renal, 26.9 µM.
For `NC1CC(n2ccc(=O)[nH]c2=O)OC1C(O)CO` (configuration not stated), the TGI in the experiment with OVCAR-3 ovarian, in the experiment with HCC-2998 colon, with UACC-62 melanoma, with OVCAR-5 ovarian, with NCI-H23 lung and in the experiment on M14 melanoma was more than 100 µM each time. Moreover, the TGI in the experiment on NCI-H522 lung, with SNB-75 CNS and in the experiment on 786-0 renal was more than 100 µM throughout.
